From US20030170730A1, “Assay method, peptides and reagent kits for testing mrp-specific inhibitors” (priority 2000, published 2003)

Experiments:
MRP1 = MRP1 (Homo sapiens, UniProt P33527); test: ATP-dependent tracer (LTC4, NEM-GS) uptake in Sf9 membrane vesicles containing MRP1; details: 37° C.
Method: (§1) The filters were washed twice with 0.5 ml of cold transport buffer, and filter-bound radioactivity was measured in scintillation fluid (Optifluor, Packard). ATP-dependent transport was calculated by subtracting the activity values obtained with AMP from those in the presence of ATP.

co-expressed ΔMRP1+L0 = co-expressed ΔMRP1+L0 (Homo sapiens, UniProt P33527); test: ATP-dependent tracer (LTC4, NEM-GS) uptake in Sf9 membrane vesicles containing co-expressed ΔMRP1 and L0; details: read-out: Km for transport of NEM-GS
Method: as §1

MRP1-MDR1 chimeras = assay type: biochemical, human; details: pretreatment with 1 mM
Method: as §1
Covalent photoaffinty labeling of the proteins was performed with Mg-8-azido-[α-^32P)-ATP in the presence of vanadate as a trapping agent (set Materials and Methods).

MRP1 variants = MRP1 variants (Homo sapiens, UniProt P33527); test: Vanadate-dependent nucleotide trapping by MRP1 variants in Sf9 membranes; details: pretreatment with 1 mM
[1] = test system: murine and human cells expressing MRP; details: cited from earlier work

MRP1, sequence (P33527 whole entry): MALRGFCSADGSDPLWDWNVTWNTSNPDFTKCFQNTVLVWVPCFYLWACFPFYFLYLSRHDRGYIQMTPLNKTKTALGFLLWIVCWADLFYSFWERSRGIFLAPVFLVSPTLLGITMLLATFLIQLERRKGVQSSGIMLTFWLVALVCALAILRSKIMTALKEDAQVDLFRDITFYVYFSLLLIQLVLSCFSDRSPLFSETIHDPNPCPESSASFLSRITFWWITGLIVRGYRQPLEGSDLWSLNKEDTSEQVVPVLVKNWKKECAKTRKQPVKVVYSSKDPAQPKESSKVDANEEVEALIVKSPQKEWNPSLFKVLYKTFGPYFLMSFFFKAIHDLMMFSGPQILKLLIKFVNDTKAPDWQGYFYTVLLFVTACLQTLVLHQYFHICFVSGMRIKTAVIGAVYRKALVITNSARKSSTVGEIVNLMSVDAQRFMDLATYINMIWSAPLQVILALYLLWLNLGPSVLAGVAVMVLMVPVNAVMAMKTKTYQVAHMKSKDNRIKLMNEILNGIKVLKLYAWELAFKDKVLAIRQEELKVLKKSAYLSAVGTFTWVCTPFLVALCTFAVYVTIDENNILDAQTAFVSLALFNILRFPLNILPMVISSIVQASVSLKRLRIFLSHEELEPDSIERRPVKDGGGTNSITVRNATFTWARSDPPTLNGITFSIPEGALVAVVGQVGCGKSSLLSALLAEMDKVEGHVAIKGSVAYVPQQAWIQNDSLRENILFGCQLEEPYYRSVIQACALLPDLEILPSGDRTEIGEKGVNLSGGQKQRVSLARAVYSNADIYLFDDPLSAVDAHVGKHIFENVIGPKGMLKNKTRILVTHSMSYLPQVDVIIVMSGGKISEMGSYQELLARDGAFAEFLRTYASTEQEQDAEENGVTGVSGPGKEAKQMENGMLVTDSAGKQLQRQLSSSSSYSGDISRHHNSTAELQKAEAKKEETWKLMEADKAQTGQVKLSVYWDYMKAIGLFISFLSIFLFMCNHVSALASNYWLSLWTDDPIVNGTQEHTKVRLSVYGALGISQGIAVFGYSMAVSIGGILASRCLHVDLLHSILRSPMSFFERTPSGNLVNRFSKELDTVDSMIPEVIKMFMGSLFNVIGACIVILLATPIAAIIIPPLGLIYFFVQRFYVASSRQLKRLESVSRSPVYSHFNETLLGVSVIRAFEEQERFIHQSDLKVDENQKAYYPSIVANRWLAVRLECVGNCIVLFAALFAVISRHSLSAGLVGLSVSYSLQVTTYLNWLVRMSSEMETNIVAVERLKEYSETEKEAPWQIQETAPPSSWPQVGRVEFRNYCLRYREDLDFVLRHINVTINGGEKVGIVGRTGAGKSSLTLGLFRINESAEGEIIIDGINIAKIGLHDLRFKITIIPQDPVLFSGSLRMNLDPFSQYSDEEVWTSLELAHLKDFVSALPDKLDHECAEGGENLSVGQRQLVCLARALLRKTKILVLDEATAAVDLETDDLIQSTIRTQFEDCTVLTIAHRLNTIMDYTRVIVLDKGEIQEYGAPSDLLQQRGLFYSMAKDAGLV
co-expressed ΔMRP1+L0, sequence (P33527 281-1531, stated change not applied): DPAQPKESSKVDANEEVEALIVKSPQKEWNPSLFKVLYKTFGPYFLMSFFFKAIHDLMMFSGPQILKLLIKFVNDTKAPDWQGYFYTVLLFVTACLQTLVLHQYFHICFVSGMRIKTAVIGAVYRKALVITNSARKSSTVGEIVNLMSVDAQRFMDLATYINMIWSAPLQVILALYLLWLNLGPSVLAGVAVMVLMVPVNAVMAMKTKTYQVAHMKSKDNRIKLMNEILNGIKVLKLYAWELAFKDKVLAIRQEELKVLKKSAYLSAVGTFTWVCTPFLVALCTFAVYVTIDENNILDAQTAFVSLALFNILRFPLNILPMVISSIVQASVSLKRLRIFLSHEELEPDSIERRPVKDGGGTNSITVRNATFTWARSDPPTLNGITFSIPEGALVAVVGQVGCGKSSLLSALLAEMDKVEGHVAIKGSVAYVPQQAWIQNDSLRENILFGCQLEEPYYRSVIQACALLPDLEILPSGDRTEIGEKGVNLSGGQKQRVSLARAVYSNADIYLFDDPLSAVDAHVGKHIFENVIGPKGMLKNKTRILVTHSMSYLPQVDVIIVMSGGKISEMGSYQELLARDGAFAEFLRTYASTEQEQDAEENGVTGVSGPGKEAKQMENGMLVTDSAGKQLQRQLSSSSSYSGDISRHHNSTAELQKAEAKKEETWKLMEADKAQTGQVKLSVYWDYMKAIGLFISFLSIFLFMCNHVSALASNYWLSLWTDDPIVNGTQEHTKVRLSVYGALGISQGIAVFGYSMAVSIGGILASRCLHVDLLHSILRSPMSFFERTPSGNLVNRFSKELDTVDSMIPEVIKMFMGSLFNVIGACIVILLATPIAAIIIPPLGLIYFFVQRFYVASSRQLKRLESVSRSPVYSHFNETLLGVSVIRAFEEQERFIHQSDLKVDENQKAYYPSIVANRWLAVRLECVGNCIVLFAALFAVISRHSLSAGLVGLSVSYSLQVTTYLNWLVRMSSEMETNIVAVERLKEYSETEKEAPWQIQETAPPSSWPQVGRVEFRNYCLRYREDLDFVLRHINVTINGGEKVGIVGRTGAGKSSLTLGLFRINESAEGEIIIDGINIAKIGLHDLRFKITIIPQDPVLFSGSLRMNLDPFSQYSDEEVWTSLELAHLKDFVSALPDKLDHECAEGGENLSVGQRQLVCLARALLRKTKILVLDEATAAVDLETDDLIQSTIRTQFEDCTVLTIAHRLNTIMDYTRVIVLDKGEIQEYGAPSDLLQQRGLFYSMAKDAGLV
co-expressed ΔMRP1+L0, sequence (P33527 204-281, stated change not applied): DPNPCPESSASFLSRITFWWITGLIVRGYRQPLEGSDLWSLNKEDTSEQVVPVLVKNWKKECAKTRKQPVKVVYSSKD
MRP1 variants, sequence (P33527 281-1531): as the sequence (P33527 281-1531, stated change not applied) above
MRP1 variants, sequence (P33527 with tags, fused parts or gaps): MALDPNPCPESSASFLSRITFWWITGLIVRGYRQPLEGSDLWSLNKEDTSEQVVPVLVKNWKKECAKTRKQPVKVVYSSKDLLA

For `CCN1C(=O)CC(SC[C@H](NC(=O)CC[C@H](N)C(=O)O)C(=O)NCC(=O)O)C1=O` (stereo partly drawn) [NEM-GS], the “initial rate of ATP-dependent NEM-GS transport” value (MRP1; 50 μM NEM-GS, MRP1 containing membranes) was “about 250 pmol mg^−1”, the Km (MRP1; read-out: Km for transport of NEM-GS, wild-type MRP1, Sf9 membrane vesicles) was 150 µM and the Km (co-expressed ΔMRP1+L0) was about 400 µM.

With `CCN1C(=O)C=CC1=O` [N-ethylmaleimide] the “inhibition of nucleotide trapping” value (MRP1-MDR1 chimeras) was “full inhibition” and the “inhibition of nucleotide trapping” value (MRP1 variants) was “full inhibition”.

In the case of `COc1ccc2c(c1)c(CC(=O)O)c(C)n2C(=O)c1ccc(Cl)cc1` [indomethacine], the “efflux of fluorescent dye BCECF” value [1] is given as “effectively inhibited”.
